From ChEMBL document CHEMBL1122287, “N2-1H-benzimidazol-2-yl-N4-phenyl-2,4-pyrimidinediamines and N2-1H-benzimidazol-2-yl-5,6,7,8-tetrahydro-N4-phenyl-2,4-quinazolinediamines as potential antifilarial agents” (1983)

Key:
Litomosoides carinii [1] = assay: Antifilarial activity against circulating Litomosoides carinii microfilaria; type: functional; set-up: concentration or dose not given beside the values
Litomosoides carinii [2] = assay: Antifilarial activity against Litomosoides carinii adults; type: functional; set-up: concentration or dose not given beside the values
Brugia pahangi = assay: Antifilarial activity against Brugia pahangi in jirds was determined after subcutaneous administration of 100 mg/kg/day.; type: functional, organism-based

| SMILES | Reduction (Litomosoides carinii [1]) | Reduction (Litomosoides carinii [2]) | Reduction (Brugia pahangi) |
| --- | --- | --- | --- |
| CCN(CC)Cc1cc(Nc2cc(C(F)(F)F)nc(Nc3nc4cc(Cl)c(Cl)cc4[nH]3)n2)cc(-c2ccccc2)c1O | <90% | <60% | Not significant |
| CCN(CC)Cc1cc(Nc2cc(C(F)(F)F)nc(Nc3nc4cc(C(=O)c5ccccc5)ccc4[nH]3)n2)ccc1OC | <90% | <60% | Not significant |
| CCN(CC)Cc1cc(Nc2cc(C(F)(F)F)nc(Nc3nc4cc(C(=O)c5ccccc5)ccc4[nH]3)n2)ccc1O | <90% | <60% | Not significant |
| CCN(CC)Cc1cc(Nc2cc(C(F)(F)F)nc(Nc3nc4cc(Cl)c(Cl)cc4[nH]3)n2)ccc1OC | <90% | <60% | Not significant |
| Cc1cc(Nc2ccc(O)c(CN3CCCC3)c2)nc(Nc2nc3cc(Cl)c(Cl)cc3[nH]2)n1 | <90% | <60% | Not significant |
| CCN(CC)Cc1cc(Nc2cc(C)nc(Nc3nc4cc(Cl)c(Cl)cc4[nH]3)n2)ccc1OC | <90% | <60% | Not significant |
| CCOc1ccc(Nc2cc(C)nc(Nc3nc4cc(Cl)c(Cl)cc4[nH]3)n2)cc1CN(CC)CC | <90% | <60% | Not significant |
| CCN(CC)Cc1cc(Nc2cc(C(F)(F)F)nc(Nc3nc4cc(Cl)c(Cl)cc4[nH]3)n2)ccc1O | <90% | <60% | Not significant |
| CCOc1ccc(Nc2nc(Nc3nc4cc(Cl)c(Cl)cc4[nH]3)nc3c2CCCC3)cc1CN(CC)CC | <90% | <60% | Not significant |
| Cc1cc(Nc2ccc(O)c(CN3CCN(C)CC3)c2)nc(Nc2nc3cc(Cl)c(Cl)cc3[nH]2)n1 | <90% | <60% | Not significant |
| CN1CCN(Cc2cc(Nc3cc(C(F)(F)F)nc(Nc4nc5cc(C(=O)c6ccccc6)ccc5[nH]4)n3)ccc2O)CC1 | <90% | <60% | Not significant |
| CCN(CC)Cc1cc(Nc2nc(Nc3nc4cc(Cl)c(Cl)cc4[nH]3)nc3c2CCCC3)ccc1O | <90% | <60% | Not significant |
| CCNCc1cc(Nc2cc(C)nc(Nc3nc4cc(Cl)c(Cl)cc4[nH]3)n2)ccc1OC | <90% | <60% | Not significant |
| CN1CCN(Cc2cc(Nc3nc(Nc4nc5cc(Cl)c(Cl)cc5[nH]4)nc4c3CCCC4)ccc2O)CC1 | <90% | <60% | Not significant |
| CCNCc1cc(Nc2nc(Nc3nc4cc(Cl)c(Cl)cc4[nH]3)nc3c2CCCC3)ccc1OC | <90% | <60% | Not significant |
| CCN(CC)Cc1cc(Nc2cc(C)nc(Nc3nc4cc(Cl)c(Cl)cc4[nH]3)n2)ccc1O | <90% | <60% | Not significant |
| CNCc1cc(Nc2cc(C)nc(Nc3nc4cc(Cl)c(Cl)cc4[nH]3)n2)ccc1O | <90% | <60% | Not significant |
| CCNCc1cc(Nc2cc(C(F)(F)F)nc(Nc3nc4cc(C(=O)c5ccccc5)ccc4[nH]3)n2)ccc1OC | <90% | <60% | Not significant |
| CCN(CC)Cc1cc(Nc2cc(-c3ccccc3)nc(Nc3nc4cc(Cl)c(Cl)cc4[nH]3)n2)ccc1O | <90% | <60% | Not significant |
| CCOC(=O)N1CCN(Cc2cc(Nc3cc(C(F)(F)F)nc(Nc4nc5cc(Cl)c(Cl)cc5[nH]4)n3)cc(-c3ccccc3)c2O)CC1 | <90% | <60% | Not significant |
